The text below walks through data of patent US4774248A, “Methods of treating depression and depressive states using 5-phenyl-1,4,5,6-tetrahydropyrimidine derivatives” (priority 1985, dated 1988).

The structures appear in SMILES notation. Entries after “also recorded” stand apart in the source; their conditions may differ. Some results are limits rather than exact numbers.

The test system of one data set is chicken embryos. The conditions noted are these: D. G. UPSHALL, Teratology, 1972; cited from earlier work.
The next data set relates to male mice. Description: Acute toxicity, intraperitoneal (LD0, LD30, LD60, LD100). The data set is classed as in vivo. The procedure:
(§1) The results of toxicological and neuropsychopharmacological tests which were carried out with the products according to the invention have been summarized below. In these tests, solutions of the said products in distilled water were administered intraperitoneally in a volume of 20 ml/kg to male mice and in a volume of 5 ml/kg to male rats.

Data set [1] deals with mice. Description: Overall behavior and reactivities in mice. The data set is classed as in vivo. The following applies: i.p. The procedure:
as §1
(§2) Groups of 3 animals are observed before and then 0.25 h, 0.50 h, 1 h, 2 h, 3 h and 24 h after the administration of CRL 41 378. The following observations are made:
(§3) Groups of 3 animals are observed before and then 0.25 h, 0.50 h, 1 h, 2 h, 3 h and 24 h after the administration of CRL 41 329.

In another data set the test system is rats. As to the kind of experiment: Overall behavior and reactivities in rats. The format is in vivo. The conditions noted are these: i.p. How it is done:
as §1, §2, §3

Data set [2] concerns hypothermia, righting behavior and stereotypies induced by apomorphine. Description: Interaction with apomorphine in mice. The following applies: i.p. The format is in vivo. How it is done: as §1
CRL 41 378 is administered to groups of 6 mice 30 minutes before the subcutaneous injection of 1 or 16 mg/kg of apomorphine.

Data set [3] has as its system stereotypies induced by amphetamine. As to the kind of experiment: Interaction with amphetamine (rats). The format is in vivo. The conditions noted are these: i.p.; amphetamine 2 mg/kg. The procedure: as §1
Amphetamine (2 mg/kg) is injected intraperitoneally into groups of 6 rats 30 minutes after the administration of CRL 41 378.

The test system of data set [4] is hypothermia and ptosis induced by reserpine. Description: Interaction with reserpine. The conditions noted are these: mice, i.p.; reserpine 2.5 mg/kg. The format is in vivo. The procedure: as §1
Four hours after the intraperitoneal injection of 2.5 mg/kg of reserpine, groups of 12 mice receive CRL 41 378.

The subject of data set [5] is hypothermia, trembling and peripheral cholinergic symptoms induced by oxotremorine. As to the kind of experiment: Interaction with oxotremorine. The data set is classed as in vivo. The following applies: mice, i.p.; oxotremorine 0.5 mg/kg. The procedure:
as §1
CRL 41 378 is administered to groups of 6 mice 0.5 h before the intraperitoneal injection of 0.5 mg/kg of oxotremorine.

Data set [6] has as its system mice. Description: Electric shock. The format is in vivo. The following applies: i.p. How it is done:
as §1
The test is performed on groups of 10 mice 30 minutes after the administration of CRL 41 378.

Data set [7] has as its system mice. As to the kind of experiment: Intergroup aggressiveness. The format is in vivo. The conditions noted are these: mice, i.p. The procedure: as §1
After they have stayed for 3 weeks in the two halves of a cage divided by an opaque partition, groups of 3 mice receive CRL 41 378. Half an hour later, the two groups from the same cage are brought together by removal of the partition and the number of fights which occur in 10 minutes is noted.

Data set [8] relates to mice. As to the kind of experiment: Motility reduced by hypoxic aggression (acute hypobaric anoxia). The format is in vivo. The following applies: i.p. How it is done: In these tests, solutions of the said products in distilled water were administered intraperitoneally in a volume of 20 ml/kg to male mice and in a volume of 5 ml/kg to male rats.
The test system of data set [9] is mice. As to the kind of experiment: Asphyxiant anoxia caused by gallamine triiodoethylate. The format is in vivo. The following applies: i.p., gallamine triiodoethylate 32 mg/kg. The procedure:
as §1
Groups of 10 mice receive CRL 41 378 30 minutes before the intraperitoneal administration of 32 mg/kg of gallamine triiodoethylate (reference curarizing agent).

The test system of data set [10] is mice. Description: Behavioral despair (forced immersion). The format is in vivo. The conditions noted are these: mice which have been forcibly immersed, i.p. How it is done: as §1
Half an hour after they have received CRL 41 378, groups of 6 mice are placed in a beaker filled with water to a height of 6 cm. The total period of immobility between the 2nd and 6th minutes following immersion is noted.

Data set [11] deals with central nervous system (CNS). As to the kind of experiment: Neuropsychopharmacological profile (conclusions of the tests). The data set is classed as in vivo, mice and rats. The following applies: i.p. How it is done: as §1
Data set [12] concerns hypothermia induced by apomorphine. As to the kind of experiment: Interaction with apomorphine by gastric administration. The data set is classed as in vivo. The conditions noted are these: Mus musculus, male mice, apomorphine 16 mg/kg s.c., read-out: dose as from which the hypothermia induced by apomorphine is opposed. How it is done: Each test product is administered gastrically to male mice, in a volume of 20 ml/kg, 0.50 h before the subcutaneous injection of 16 mg/kg of apomorphine.

In data set [13] the test system is anesthetized dogs. As to the kind of experiment: Cardiovascular study in anesthetized dogs. The format is in vivo. How it is done:
Groups of 2 adult dogs (each weighing 10 to 18 kg), anesthetized with nembutal, receive each test product (i) by intraduodenal administration at successive doses of 0.1 mg/kg, 0.5 mg/kg, 1 mg/kg, 2.5 mg/kg, 5 mg/kb, 10 mg/kg and 20 mg/kg, and then (ii) if appropriate, by intravenous administration at a dose of 10 mg/kg. The effects of 10 μg/kg of isoprenaline and/or 2 μg/kg of norepinephrine after the intraduodenal administration of a cumulative dose of 39.1 mg/kg are also assessed.
The following are measured: the total arterial blood pressure, the diastolic arterial blood pressure, the heart rate, the blood flows through the femoral and cerebral arteries and saphenous veins, the rectal temperature, the skin temperature and the pressure of the gases (essentially O2) dissolved in the arterial blood.

In data set [14] the test system is trembling and head twitches induced by 5-hydroxytryptophan (5-HTP). Description: Interaction with 5-hydroxytryptophan in association with an MAOI (nialamide). The data set is classed as in vivo, male mice. How it is done:
The purpose of the procedure used is to investigate the activity of each product according to the invention as regards the trembling induced by 5-hydroxytryptophan (5-HTP) in association with an MAOI (in this case nialamide).
Each test product, in solution in distilled water, is administered intraperitoneally in a volume of 20 ml/kg to male mice.
Groups of 10 mice receive nialamide (20 mg/kg, administered gastrically) at time T-18 h, each test product at time T-0.5 h and then (±)-5-HTP (20 mg/kg, administered intraperitoneally) at time T. Immediately after the injection of the (±)-5-HTP, the mice are individually placed in transparent plastic boxes. The generalized trembling, the partial trembling and the head twitches are noted on a yes/no basis for 2 h.

The next data set deals with pregnant rabbits. Description: Teratogenic effects on pregnant rabbits. The format is in vivo.
The subject of data set [15] is depressions and depressive states. As to the kind of experiment: Clinical trials in depression and depressive states. The following applies: daily oral administration to adults. The data set is classed as in vivo, human. How it is done: The clinical trials which have been undertaken have made it possible to determine that the daily dose to be administered orally to adults, in the treatment of depressions and depressive states, is generally between 3 and 120 mg for the products of the formulae Ia and Ib according to the invention.

Data set [16] deals with anesthetized dogs. Description: Cardiovascular study in anesthetized dogs. The following applies: intraduodenal. The format is in vivo.
[17] abbreviates: i.p., nialamide + (±)-5-HTP, male mice.

In the case of `c1ccc(C2=NCCCN2)cc1` [compound No. 2], the teratogenic effect entry in the data set on chicken embryos is “teratogenic”.

Consider `Clc1ccc(C2CCNC=N2)cc1` (stereo not drawn) [compound No. 18], for which the teratogenic effect entry with chicken embryos was “absence of teratogenic effects on chicken embryos”.

With `Cl.Fc1ccccc1C1CN=CNC1` (stereo not drawn) [CRL 41 329, 5-(2-fluorophenyl)-1,4,5,6-tetrahydropyrimidine hydrochloride], the “toxic signs in the animals treated” value is “all the animals treated exhibit salivation, sedation and vasodilation of the tail” in the data set with male mice (64 mg/kg i.p.); “all the animals have asphyxiant convulsions” in the data set with male mice (128 mg/kg i.p.). Also, the “LD0 (maximum non-lethal dose)” value in the data set on male mice (intraperitoneal) is recorded as “greater than 64 mg/kg”. The “LD100 (minimum dose lethal to all the animals)” value with male mice (intraperitoneal) is given as roughly 128 mg/kg. Also, the “overall behavior and reactivities” value in the data set on mice [1] (0.5 mg/kg) is “moderate mydriasis for 2 h”; in the data set on mice [1] (2 mg/kg, hydrochloride), “sedation (2 out of 3 animals) for 0.5 h; also recorded: moderate and brief mydriasis for 0.5 h”; in the data set with mice [1] (8 mg/kg, hydrochloride), “sedation (2 out of 3 animals) for 0.5 h; also recorded: weak and brief mydriasis for 0.5 h”; in the data set with mice [1] (32 mg/kg), “sedation (3/3) 0.25 h after administration, then (2/3) 0.5 h after administration”; with rats (0.25 mg/kg) it was “moderate mydriasis for 3 h”; with rats (1 mg/kg) it was “significant mydriasis for 3 h”. Also, the “overall behavior and reactivities” value is “sedation (3/3) for 2 h; also recorded: a decrease in the reactivity to touch and the muscle tone; also recorded: piloerection (1/3) for 1 h; also recorded: significant mydriasis for at least 3 h (mydriasis still being apparent 24 h after administration)” with rats (4 mg/kg, hydrochloride); “sedation (3/3) for 3 h; also recorded: a decrease in the reactivity to touch and the muscle tone; also recorded: significant mydriasis for 3 h (the mydriasis still being apparent 24 h after administration)” in the data set with rats (16 mg/kg, hydrochloride). The “action on hypothermia induced by apomorphine” value in [2] was “significant antagonism of the hypothermia induced by apomorphine, oxotremorine and reserpine”. In addition, the “action on stereotypies induced by amphetamine” value in [3] is “potentiates the stereotypies induced by amphetamine”. For the same compound, in data set [4], the “action on hypothermia induced by reserpine” value is “significant antagonism of the hypothermia induced by apomorphine, oxotremorine and reserpine”. Besides, the “action on hypothermia induced by oxotremorine” value in data set [5] is “significant antagonism of the hypothermia induced by apomorphine, oxotremorine and reserpine”. Further, the “lethal effects of electric shock” value in the data set with mice [6] is “aggravation of the lethal effects of electric shock and gallamine triiodoethylate in mice”. Besides, in the data set on mice [7], the “intergroup aggressiveness (number of fights)” value is listed as “a decrease in the intergroup aggressiveness in mice”. The “motor recovery after acute hypobaric hypoxia” value in the data set on mice [8] was “a decrease in the motor recovery after hypoxic aggression”. The “time taken for convulsions and death / lethal effects of gallamine triiodoethylate” value in the data set with mice [9] is “aggravation of the lethal effects of electric shock and gallamine triiodoethylate in mice”. The period of immobility entry in the data set with mice [10] is listed as “no decrease in the period of immobility due to "despair"”. Also, the antidepressant effects result in data set [11] was “antidepressant effects appearing at all the doses used”. Besides, in data set [11], the “peripheral α-adrenergic stimulant effects” value is recorded as “modest effects capable of reflecting peripheral α-adrenergic stimulation”. For the same compound, in [11] (hydrochloride), the sedative effects result is recorded as “sedative effects appearing at high doses; also recorded: sedation with hypomotility; also recorded: low-intensity transient hypothermia”. Further, the minimal effective dose in data set [12] was no less than 0.25 mg/kg. For the same compound, the rectal temperature result in the data set with anesthetized dogs [13] is reported as “increases the rectal temperature”. Moreover, the skin temperature result in the data set on anesthetized dogs [13] was “increases the rectal temperature and skin temperature”. For the same compound, in the data set on anesthetized dogs [13] (intraduodenal), the arterial blood pressure entry is “tends to increase the arterial blood pressure”. Also, in the data set with anesthetized dogs [13] (intraduodenal), the heart rate result is recorded as “decrease the heart rate”. Moreover, the mydriasis and salivation entry with anesthetized dogs [13] (intraduodenal) was “causes mydriasis and substantial salivation”. In the data set on anesthetized dogs [13] (intraduodenal), the respiratory arrhythmia entry is listed as “causing respiratory arrhythmia”. Besides, the effects of isoprenaline result in the data set on anesthetized dogs [13] (isoprenaline 10 μg/kg) is “does not cause a distinct modification of the effects of isoprenaline on the diastolic arterial blood pressure and the heart rate”. Further, in the data set on anesthetized dogs [13] (norepinephrine 2 μg/kg), the “hypertension induced by norepinephrine” value is “decreases the hypertension induced by norepinephrine”. Also, in data set [14] (5-HTP + MAOI), the “analogy with β-adrenergic stimulants in the 5-HTP procedure” value is “effects analogous to those of isoprenaline”. Moreover, the “intensity of potentiation of 5-HTP effects” value in [14] (higher doses, 5-HTP + MAOI, male mice) is reported as “the potentiation being very intense at the doses of 8 to 32 mg/kg”. Moreover, in [14] (setting [17]), the head twitches entry is “distinctly potentiate the partial trembling and the head twitches”. Moreover, in data set [14] (setting [17]), the partial trembling entry was “distinctly potentiate the partial trembling and the head twitches”. In the data set on pregnant rabbits, the teratogenic effects entry was “devoid of harmful teratogenic effects on pregnant rabbits”. In data set [15], the “results in human therapy (depression)” value is recorded as “excellent results”. Also, the “blood flows through the femoral and vertebral arteries” value with anesthetized dogs [16] was “decreases the blood flows in the femoral and vertebral arteries”.
